# Data published in patent US20210386756A1, “IMPROVEMENTS FOR PERFORMING AND FACILITATING THE RECOVERY AFTER HEMATOPOIETIC STEM CELL TRANSPLANTATION” (Centro de Investigaciones Energéticas, Medioambientales y …, priority 2018, published 2021).
# What was measured:
# [1] = test system: mouse MSCs (mCD140a+) and vascular endothelial cells (mCD144+); assay: Mouse BM niche analysis (MSCs and vascular endothelial cells) after transplant and estrogen treatment; assay type: in vivo; details: four months after transplant, versus vehicle-treated animals
# Procedure: FIG. 12 refers to modulation of the hematopoietic niche by estrogens. […] FIG. 12B refers to the relative mouse vascular endothelial cells (mCD144+ or VE-Cadherin+) in the BM of the male mice transplanted with 5×10^4 hCB-CD34+ cells analyzed 4 months after transplantation. […] Data are presented by dots and box-plots that represent the interquartile range (p75, upper edge; p25, lower edge; p50, midline; p95, line above the box; and p5, line below the box). Significance was analyzed by Mann-Whitney U test and represented by **P<0.01.
# To provide a further insight into the positive impact of estrogens on promoting human hematopoietic engraftment, we examined mesenchymal and vascular endotelial compartments of the mouse BM niche four months after being transplanted and treated with E2 (estradiol) or E4 (estetrol). The percentage of mouse MSCs (mCD140a+, also called Pdgfra+) and vascular endothelial cells (mCD144+, also called VE-Cadherin+) was analyzed in the non-hematopoietic compartment ([…]).
# [2] = test system: human cord-blood CD34+ cells; assay: Human hematopoietic engraftment in male NSG mice transplanted with 5×10^4 human cord-blood CD34+ cells; assay type: in vivo, mouse
# Procedure: Three-four months later, the animals were sacrificed and the human hematopoietic engraftment was analyzed by FACS. Human hematopoietic population was identified as the cells positive for hCD45-APC-Cy7 (Biolegend) and negative for mouse CD45.1-PE (Biolegend). In order to further examine the effect of the estrogen in HSCT, hematopoietic progenitors (hCD34+) and hematopoietic stem cells (hCD34+/hCD38−) were analyzed by FACS inside of the human population in the treated NSG described in Example 1.
# [3] = test system: human hematopoietic progenitors (CB-CD34+); assay: LTC-IC human bone marrow-like co-culture (hMSC + hCD34+) and CFU assay; assay type: cell-based
# Procedure: LTC-IC was established through the co-culture of human bone marrow Mesenchymal Stromal Cells (BM-MSC) and human progenitors (CB-CD34+) to research the positive effects of the estrogens in a human context, such as an in vitro human bone marrow model. LTC-ICs were treated with vehicle or 100 µM of E2 or E4 for a week. […] Cells were plated in methycellulose media with specific hematopoietic cytokines to evaluate the hematopoietic progenitor content. After 14 days, colony forming units (CFU) were counted. Data were normalized to control groups. […] 1×10^5 human mesenchymal stromal cells (hMSC) were seeded in a p6 well and irradiated with 30 Gy next day. The following day, 5×10^4 hCD34^+ were added to the hMSC in LTC-IC media: 75% α-MEM without Phenol Red (Life Technologies), 12.5% Hyclone FBS (GE Healthcare), HS (Life Technologies), β-mercaptoethanol (Life Technologies), 0.5% PS and 1×10^−6 M Hydrocortisone (Sigma-Aldrich). 100 μM of estrogens, dissolved in ethanol, was added to the co-culture for a week, and then the cells were collected and the amount of human hematopoietic progenitors were evaluated in semisolid media supplement with specific hematopoietic cytokines (H4535, StemCell Technologies) plus 8 U/ml hEPO. After fourteen days, colony-forming units (CFU) were evaluated and normalized to the control: […]
# [4] = relative to other estrogens; cited from earlier work
# human cord blood CD34+ = assay: Human engraftment in male NSG mice transplanted with a limited CD34+ cell dose (5×10^3); assay type: in vivo, mouse
# Procedure: FIG. 6A indicates the level of human engraftment, which was raised by E4 administration. […] (Kruskal-Wallis test; P=0.1150, 7-10 mice per group). […] Three-four months later, the animals were sacrificed and the human hematopoietic engraftment was analyzed by FACS. Human hematopoietic population was identified as the cells positive for hCD45-APC-Cy7 (Biolegend) and negative for mouse CD45.1-PE (Biolegend). To determine whether estrogen can improve hematopoietic reconstitution of low number of hematopoietic progenitors, male NSG were irradiated and transplanted with low doses of human cord blood CD34+ (5×103 hCD34+). The human engraftment was analyzed as described in Example 1.
# [5] = biological target: T1, sex hormone-binding globulin (SHBG) (Homo sapiens, UniProt P04278); details: cited from earlier work
# T1 sequence (P04278 30-402): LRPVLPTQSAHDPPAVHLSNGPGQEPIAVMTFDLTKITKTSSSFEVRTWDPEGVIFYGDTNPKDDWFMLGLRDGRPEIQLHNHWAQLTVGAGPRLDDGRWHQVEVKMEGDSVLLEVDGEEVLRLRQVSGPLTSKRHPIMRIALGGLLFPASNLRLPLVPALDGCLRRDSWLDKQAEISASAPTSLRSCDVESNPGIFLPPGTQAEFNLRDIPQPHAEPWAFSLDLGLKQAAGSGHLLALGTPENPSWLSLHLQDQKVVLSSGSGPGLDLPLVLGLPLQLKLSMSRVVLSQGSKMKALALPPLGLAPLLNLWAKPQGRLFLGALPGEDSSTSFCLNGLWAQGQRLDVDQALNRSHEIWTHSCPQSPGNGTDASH
compound,measurement,setting,value
"C[C@]12CC[C@@H]3c4ccc(O)cc4CC[C@H]3[C@@H]1[C@@H](O)[C@@H](O)[C@@H]2O [E4, estetrol]",number of mCD140a+ cells (mouse MSCs) in BM,[1],increased
same,Percentage in the human hematopoietic population: hematopoietic stem cells,"[2]; hCD34+/hCD38−, male NSG, 5×10^4 CD34+, 2 μg daily for four days, mean +/− SEM",0.87 +/− 0.11 (n = 11) %
same,Percentage in the human hematopoietic population: hematopoietic progenitors,"[2]; hCD34+, male NSG, 5×10^4 CD34+, 2 μg daily for four days, mean +/− SEM",13.94 +/− 0.85 (n = 11) %
same,Percentage of human hematopoietic reconstitution,"[2]; male NSG, 5×10^4 CD34+, 2 μg daily for four days, three-four months later, mean +/− SEM",47.47 +/− 6.08 (n = 9) %
same,Percentage in the human hematopoietic population: Lymphoid,"[2]; male NSG, 5×10^4 CD34+, 2 μg daily for four days, CD19+, mean +/− SEM",81.22 +/− 4.83 (n = 5) %
same,Percentage in the human hematopoietic population: Myeloid,"[2]; male NSG, 5×10^4 CD34+, 2 μg daily for four days, CD33+, mean +/− SEM",8.24 +/− 1.65 (n = 5) %
same,"human hematopoietic progenitors (hCD34+) and human HSC (hCD34+CD38−) in the human engraftment, significance","[2]; three months post-transplant, Kruskal-Wallis P<0.05",statistically significant differences compared to controls and E2 treated group
same,Normalized human CFU,"[3]; 100 μM estrogen for a week, CFU after fourteen days, normalized to control, mean +/− SEM",1.98 +/− 0.23 (n = 6)
same,total number of primitive hematopoietic progenitors in LTC-IC,"[3]; 100 μM for a week, versus vehicle",almost doubled
same,in vivo half-life,[4],considerably longer than that of other estrogens
same,proportion of engrafted mice (human engraftment above 0.1%),human cord blood CD34+; 5×10^3 CB-CD34+,70%
same,change of the proportion of engrafted mice versus vehicle,"human cord blood CD34+; limited HPC dose, engraftment above 0.1%",almost tripled
same,Percentage of human hematopoietic reconstitution,"human cord blood CD34+; low dose 5×103 hCD34+, mean +/− SEM",3.20 +/− 1.43 (n = 9) %
same,binding by SHBG,[5],not bound
